According to ChEMBL document CHEMBL2429717 (J Med Chem, 2013):

Legend:
[1] = test system: MDA-MB-435; assay: Cytotoxicity against human MDA-MB-435 cells assessed as growth inhibition; format: functional, cell-based
[2] = Induction of interphase microtubule depolymerization in rat A10 cells; format: cell-based
[3] = test system: MDA-MB-435; assay: Cytotoxicity against human MDA-MB-435 cells assessed as growth inhibition after 72 hrs by SRB assay; format: functional, cell-based; details: MDA-MB-435, 72 h
[4] = Induction of interphase microtubule depolymerization in rat A10 cells after 18 to 24 hrs by DAPI staining-based indirect immunofluorescence assay; format: cell-based
[5] = test system: Jurkat; assay: Cytotoxicity against human Jurkat cells assessed as growth inhibition; format: functional, cell-based
[6] = target: Tubulin; assay: Displacement of [3H]colchicine from tubulin (unknown origin); format: protein-complex assay, Homo sapiens

SMILES	EC50 [2] [µM]	pEC50 [2]	EC50 [4] [µM]	pEC50 [4]	IC50 ([1]; read-out: IC50) [µM]	IC50 ([1]; read-out: pIC50 (converted)) [µM]	also measured
CCOC(=O)c1[nH]c(Br)c(-c2ccc(SC)cc2)c1Br	19	4.73			0.626	0.631	
CCOC(=O)c1c(-c2ccc(OC)c(OC)c2)c(-c2ccc(OC)c(OC)c2)cn1CCc1ccc(OC)c(OC)c1	500	3.3			100	100	
CCOC(=O)c1[nH]c(Br)c(-c2ccc(C)cc2)c1Br	75	4.12				2.24	
COc1cc2c(c(N)c1OC)C(=O)/C(=C/c1cc(C)c(O)c(C)c1)C2							IC50 ([5]; read-out: IC50): 0.001 µM; IC50 ([5]; read-out: pIC50 (converted)): 0.001 µM
CCOC(=O)c1[nH]c(Br)c(-c2cccc3ccccc23)c1Br	7	5.15			3.2	3.24	
CCCCCCOC(=O)c1[nH]c(Br)c(-c2ccc(OC)c(OC)c2)c1Br			14	4.85			
COc1ccc(-c2oc3c(OC)c(OC)c(OC)c(O)c3c(=O)c2OC)cc1O							Kd [6]: 0.13 µM
COC(=O)c1[nH]c(Br)c(-c2ccc(OC)c(OC)c2)c1Br			5	5.3			
COc1ccc(-c2c(Br)[nH]c(C(=O)OCCCN(C)C)c2Br)cc1OC.Cl			100	4			
CCOC(=O)c1[nH]c(Br)c(-c2cc(OC)c(OC)c(OC)c2)c1Br	71	4.15					
COc1ccc([C@H]2[C@H](c3cc(OC)c(OC)c(OC)c3)C(C)=NN2C(C)=O)cc1O	4.5	5.35					
CCOC(=O)c1[nH]c(Br)c(-c2ccc(Cl)cc2)c1Br	83	4.08					
COc1ccc(-c2c(Br)[nH]c(C(=O)OCCN(C)C)c2Br)cc1OC			50	4.3			
CCCCOC(=O)c1[nH]c(Br)c(-c2ccc(OC)c(OC)c2)c1Br			33	4.48			
CCOC(=O)c1[nH]c(Br)c(-c2ccc3c(c2)OCCO3)c1Br	21	4.68			4.4	4.37	
COc1ccc(-c2c(Br)[nH]c(C(=O)OC(C)(C)C)c2Br)cc1OC			25	4.6			

SMILES	EC50 [2] [µM]	pEC50 [2]	EC50 [4] [µM]	pEC50 [4]	IC50 ([1]; read-out: IC50) [µM]	IC50 ([1]; read-out: pIC50 (converted)) [µM]	also measured
COc1ccc(-c2c(Br)[nH]c(C(=O)OCCN(C)C)c2Br)cc1OC.Cl			100	4			
CCOC(=O)c1[nH]c(Br)c(-c2ccc(Cl)c(Cl)c2)c1Br	9.9	5			0.806	0.813	
COc1ccc(-c2c(Br)[nH]c(C(=O)OCCCN(C)C)c2Br)cc1OC			50	4.3			
CCOC(=O)c1[nH]c(Br)c(-c2ccc3c(c2)OCO3)c1Br	30	4.53			1.8	1.82	
COc1ccc(-c2oc3cc(O)c(OC)cc3c(=O)c2OC)cc1O							Kd [6]: 6 µM
CCOC(=O)c1[nH]c(Br)c(-c2ccc(OC)c(F)c2)c1Br	14	4.85			0.539	0.537	
CCOC(=O)c1[nH]c(Br)c(-c2cc(OC)c(OC)cc2Br)c1Br	14	4.85			2.6	2.63	
CCOC(=O)c1[nH]c(Br)c(-c2c[nH]c3ccccc23)c1Br	18	4.75			2	2	
O=c1c(O)c(-c2ccc(O)cc2O)oc2cc(O)cc(O)c12 [MORIN]							Kd [6]: > 100 µM; pKd [6]: 3.7
COc1ccc(-c2c(Br)[nH]c(C(=O)OCc3ccccc3)c2Br)cc1OC			100	4			
O=C1/C(=C/c2cc(Cl)cc(Cl)c2)Cc2cc(O)c(O)cc21							IC50 ([5]; read-out: IC50): > 50 µM; IC50 ([5]; read-out: pIC50 (converted)): 100 µM
COc1ccc(-c2c(Br)[nH]c(C(=O)OC(C)C)c2Br)cc1OC			3.6	5.44			
CCCOC(=O)c1[nH]c(Br)c(-c2ccc(OC)c(OC)c2)c1Br			3.3	5.48			
CCOC(=O)c1[nH]c(Br)c(-c2ccccc2)c1Br	167	3.78				10.2	
CCOC(=O)c1[nH]c(Br)c(-c2ccc(Br)cc2)c1Br	94	4.03					

Second part, led by results:

EC50 [2] [µM]	pEC50 [2]	EC50 [4] [µM]	pEC50 [4]	SMILES	IC50 ([1]; read-out: IC50) [µM]	IC50 ([1]; read-out: pIC50 (converted)) [µM]	also measured
		8.4	5.08	COc1ccc(N(C)c2nc(N)nc3cc(C)[nH]c23)cc1			IC50 ([3]; read-out: IC50): 0.298 µM; IC50 ([3]; read-out: pIC50 (converted)): 0.295 µM
		1.4	5.85	COc1ccc(N(C)c2ncnc3cc[nH]c23)cc1			IC50 ([3]; read-out: IC50): 0.193 µM; IC50 ([3]; read-out: pIC50 (converted)): 0.195 µM
1.6	5.8			COc1cccc(N(C)c2nc(C)nc3c2C[C@H](C)C3)c1	0.095	0.0955	
500	3.3			CCOC(=O)c1[nH]c(C(=O)c2ccc(OC)cc2)c(-c2ccc(OC)cc2)c1-c1ccc(OC)cc1	100	100	
		0.22	6.66	COc1ccc(N(C)c2nc(C)nc3cc(C)[nH]c23)cc1			IC50 ([3]; read-out: IC50): 0.03 µM; IC50 ([3]; read-out: pIC50 (converted)): 0.0302 µM
7	5.15			CCOC(=O)c1[nH]c(Br)c(-c2ccc(OC)cc2)c1Br	0.843	0.851	
		0.23	6.64	COc1ccc2c(c1)CCCN2c1nc(C)nc2cc[nH]c12			IC50 ([3]; read-out: IC50): 0.043 µM; IC50 ([3]; read-out: pIC50 (converted)): 0.0427 µM
500	3.3			CCOC(=O)c1[nH]c(C(=O)c2ccc(OC)cc2)c(-c2ccc(OC)cc2)c1Br	100	100	
500	3.3			CCOC(=O)c1[nH]cc(-c2ccc(OC)cc2)c1-c1ccc(OC)cc1			
6.9	5.16			COc1cccc(N(C)c2nc(C)nc3c2C[C@@H](C)C3)c1	0.402	0.398	
2.4	5.62			CCOC(=O)c1[nH]c(Br)c(-c2cccc(OC)c2)c1Br	0.633	0.631	
520	3.28			COc1ccc(Nc2nc(C)nc3c2C[C@@H](C)C3)cc1	51	51.3	
43	4.37			Cc1nc2c(c(N(C)c3ccccc3)n1)C[C@H](C)C2	1.67	1.66	
500	3.3			COc1ccc(C(=O)c2[nH]c(C(=O)c3ccc(OC)cc3)c(-c3ccc(OC)cc3)c2-c2ccc(OC)cc2)cc1	100	100	
100	4			CCOC(=O)c1cc(-c2ccc(OC)cc2)c(C(=O)c2ccc(OC)cc2)[nH]1	3	3.02	
520	3.28			Cc1nc2c(c(N(C)c3ccccc3)n1)C[C@@H](C)C2	7.1	7.08	
500	3.3			CCOC(=O)c1c[nH]c(C(=O)c2ccc(OC)cc2)c1-c1ccc(OC)cc1	100	100	
33	4.48			CCOC(=O)c1[nH]c(Br)c(-c2ccc3cc(OCC)ccc3c2)c1Br	2	2	
		100	4	COc1ccc(OC(=O)c2[nH]c(Br)c(-c3ccc(OC)c(OC)c3)c2Br)cc1			
		1.2	5.92	COc1ccc(N(C)c2nc(C)nc3cc[nH]c23)cc1			IC50 ([3]; read-out: IC50): 0.097 µM; IC50 ([3]; read-out: pIC50 (converted)): 0.0955 µM
27	4.57			CCOC(=O)c1[nH]c(Br)c(-c2ccc(OC(F)(F)F)cc2)c1Br	1.7	1.7	
